The experiment has as its system AMPA receptor. In words: Fast application with Y-tubing: dose-response on desensitization of glutamate current in outside-out patches from CAl pyramidal neurons. Format: cell-based, rat. As to conditions: increasing doses, 5 μM MK-801. The text has this: Media and drug application. The external Ringer solution contained (in mM): NaCl 120; KCl 3.1; CaCl2 2; MgCl2 1; KH2 PO4 1; NaHCO3 26; glucose 2.7; and it was continuously bubbled with 95% O2 and 5% CO2. Patch pipettes were filled with a solution containing (in mM): K-gluconate 140; MgCl2 1; ATP.Mg 2; EGTA 0.5; HEPES-KOH 10, pH 7.2. All the drugs under investigation were applied through the recording chamber perfusion system via parallel inputs having a common entry into the chamber. Agonist application was attained using two different systems that allowed a slow or a rapid solution change. Slow solution changes were used during recordings in whole-cell configuration and were obtained by exchanging the solution of the recording chamber within a few seconds. […]
Briefly, a polyethylene tubing (1 mm i.d.) is bent in a U-shaped, and another fine polyethylene tubing (50 μi.d.) and 10 mm length) is inserted into a small hole in the U-tubing making the tip of the Y-tubing. […] The agonist was applied for a period of 150 ms and the time necessary for a complete exchange of the solution was less than 1 ms as measured at the opening of a patch pipette containing different dilutions of the drugs under study. […]
Dose-response studies were performed with the Y-tubing system, and analyzed with sigmoid interpolation (Graphpad Academic Press). […]

As to `CC1Nc2ccc(Cl)cc2S(=O)(=O)N1` (racemic) [IDRA 21, 7-chloro-3-methyl-3,4-dihydro-2H 1,2,4-benzothiadiazine S-S dioxide], the “desensitization of current activated by 100 μM glutamate” value was “decreased by increasing doses”.

For the origin of these results see patent US5488049A, “Method of treating learning and memory disorders using benzothiadiazide derivatives as nootropic agents” (FIDIA - Georgetown Institute for the Neuro-Sciences, priority 1993, dated 1996).
